Assay [1] concerns the target Na/K-ATPase α1 (Homo sapiens, UniProt P05023). The experiment in a line: Na/K-ATPase α1 endocytosis by confocal immunostaining, DU145 cells. The format is cell-based. Also on record: endogenous in cells; host or cells: DU145. The conditions noted are these: 10 nM ouabain. The procedure:
Na/K-ATPase al was immunostained and visualized using Leica confocal microscope. The red arrows indicate the endocytosed vesicles containing Na/K-ATPase α1.
The cells were fixed with ice-cold methanol for 15 min and blocked with Signal Enhancer from Invitrogen. Monoclonal anti-Na/K-ATPase α1 antibody was then incubated with the cells overnight at 4° C. After 3 washes, a secondary Alexa 488-conjugated anti-mouse antibody was added and incubated for 2 h at room temperature. The coverslip was washed, mounted and imaged using a Leica confocal microscope.

A further assay concerns Na/K-ATPase α1 mRNA. Description: Na/K-ATPase α1 mRNA by RT-PCR, BT20 cells. In kind it is cell-based, human. The conditions noted are these: 10 nM ouabain, 24 h. The procedure:
Total RNA was extracted and applied for RT-PCR to probe Na/K-ATPase α1 as described in the Experimental Procedures section.
Quantitative RT-PCR: The cells were seeded in 6-cm dishes and serum-starved for 24 h after the confluence reached 90%. […] Total RNA was extracted using TRIzol and subjected to quantitative RT-PCR analysis. The assays were performed on the AB 7500 real time PCR system with the following protocol: 1 cycle (6 min at 95° C.), 40 cycles (30 s at 95° C., 30 s at 52° C., 30 s at 72° C., and 1 min at 85° C.), followed by a dissociation stage to ensure a single product. The reactions are in a total volume of 25 μl, including 1.25 µl of Sybr Green (Invitrogen), 0.125 µl of DNA polymerase (Denville), 2.5 µl of dNTP (Invitrogen), 10 ng of cDNA. Primer pairs were used at 5 μM concentration, and the sequences are:
The relative Na/K-ATPase al gene expression was calculated by comparative threshold (CT) method (ΔΔCT). To normalize the difference amounts of cDNA, GAPDH was used as an internal control.

Assay [2] has as its system DU145 cells. The experiment in a line: Cell growth curve (cell counting), DU145 cells. The format is cell-based, human. The conditions noted are these: 10 nM ouabain. The procedure:
(§1) FIG. 1B: The above three cell lines were subcultured in 12-well plates (50,000 cells/well) and serum starved.
(§2) Cell growth curve and cell cycle measurement: Cells were sub-cultured in 12 well plates at 50,000/well in 1 ml culture medium for 24 h. […] At each indicated time point, three wells of control or treated cells were trypsinized and counted. For cell cycle measurement, cells were trypsinized and re-suspended in Citrate buffer (8.55% sucrose, 1.18% Na citrated, 5% DMSO, pH 7.6), and stained with propidium iodide (PI). The stained cells were then analyzed by Flow Cytometry.

Assay [3] deals with DU145 cells. The experiment in a line: MTT cell growth assay, DU145 cells. The conditions noted are these: 24 h. The format is cell-based, human. On the procedure:
FIG. 1A: LLC-PK1 cells, BT20 cells, and DU145 cells were subcultured in 96-well plates (10,000 cells/well) and serum starved. […] Cells were solublized by adding 100 μl/well detergent provided by ATCC after 90 min of incubation and OD570 was then measured.
(§3) MTT assay for measuring cell proliferation: Cells were sub-cultured in 96 well plates at 10,000 cells/well in 100 μl culture medium. […] Ten μl MTT reagent (3-4,5-dimethylthiazol-2-yl)-2,5-diphenyltetrazolium bromide) was added to each well for 90 min. The formazan crystal was dissolved with detergent and the OD value was measured at 570 nm.
A general note: Tetrazolium assays rely on reduction of a dye to a coloured formazan, in cell work by metabolically active cells.

The test system of another assay is LLC-PK1 cells. The experiment in a line: Cell growth curve (cell counting), LLC-PK1 cells. The conditions noted are these: 10 and 50 nM ouabain. In kind it is cell-based, pig. On the procedure:
as §1, §2

For assay [4], the target named is T1, Na/K-ATPase in the plasma membrane (Homo sapiens, UniProt P05023). Description: 3H-ouabain binding after ouabain pre-treatment, BT20 cells. In kind it is cell-based. The arrangement: endogenous in cells; host or cells: BT20 (intact cells). The following applies: ouabain 72 h. On the procedure: (§4) The cells were washed and 3H-ouabain were performed as described herein. * p<0.05, ** p<0.01
(§5) To assess the functional consequence of these changes in α1 expression, the inventors measured the number of functional Na/K-ATPase in the plasma membrane.
(§6) Afterwards, cells were washed with serum-free medium and subjected to 3H-ouabain binding assay. Briefly, cells were incubated in K+-free Kreb's solution (NaCl 137 mM; KCl 0 mM; CaCl2 2.8 mM; NaH2PO4 0.6 mM; MgSO4 1.2 mM; dextrose; 10 mM; Tris 15 mM; pH7.4) for 15 min, and then exposed to 100 nM 3H-ouabain for 30 min at 37° C. At the end of incubation, the cells were washed 3 times with ice-cold K+-free Kreb's solution, solubilized in 0.1M NaOH-0.2% SDS, and counted in a scintillation counter for 3H-ouabain. […] Paralleled plates were used for counting cell numbers. 3H-ouabain binding data were calculated as binding sites per cell.

Assay [5] deals with Akt. Description: Akt phosphorylation (pAkt) by Western blot, C2-9 cells. The following applies: ouabain 15 min. In kind it is cell-based, pig. The procedure:
The cell lysates were analyzed for pAkt.
In general terms: Immunoblotting shows a protein as a band on a membrane.

The subject of assay [6] is Akt. Description: Akt phosphorylation (pAkt) by Western blot, LLC-PK1 cells. In kind it is cell-based, pig. The conditions noted are these: ouabain 15 min.
For assay [7], the system named is Akt. Description: Akt phosphorylation (pAkt) by Western blot, BT20 cells. In kind it is cell-based, human. The following applies: ouabain 15 min.
In assay [8] the target is T2, Na/K-ATPase in the plasma membrane (Sus scrofa, UniProt P05024).
T2 construct: endogenous in cells; host or cells: LLC-PK1 (intact cells)
Description: 3H-ouabain binding after ouabain pre-treatment, LLC-PK1 cells. The conditions noted are these: ouabain up to 10 nM, 72 h. In kind it is cell-based, pig. On the procedure:
as §4, §5, §6

The target of assay [9] is T1, Na/K-ATPase in the plasma membrane. The experiment in a line: 3H-ouabain binding after ouabain pre-treatment, DU145 cells. The format is cell-based. Also on record: endogenous in cells. The conditions noted are these: ouabain 72 h. The procedure: as §4, §5, §6
Assay [10] addresses T3, Na/K-ATPase α1 (Mus musculus, UniProt Q8VDN2).
T3 construct: endogenous in cells; host or cells: SYF cells; SYF cells rescued by c-Src
The experiment in a line: Na/K-ATPase α1 expression, SYF cells rescued by c-Src. In kind it is cell-based. The following applies: 0.5 and 1.0 μM ouabain. The source says: (§7) To further understand the molecular mechanism of ouabain-induced up-regulation of α1, the inventors first addressed the role of Src.

The next assay has as its system A4-11 cells. Description: MTT cell growth assay, Na/K-ATPase knock-down A4-11 cells. The format is cell-based, pig. The following applies: ouabain, 16 h. The procedure:
as §3

Assay [11] deals with T3, Na/K-ATPase α1. Description: Na/K-ATPase α1 expression, SYF cells. The conditions noted are these: SYF cells (Src, Yes, Fin knocked out), 0.5 and 1.0 μM ouabain. In kind it is cell-based.
Description: as §7

As to `C[C@@H]1O[C@@H](O[C@H]2C[C@@H](O)[C@]3(CO)[C@H]4[C@H](O)C[C@]5(C)[C@@H](C6=CC(=O)OC6)CC[C@]5(O)[C@@H]4CC[C@]3(O)C2)[C@H](O)[C@H](O)[C@H]1O` [ouabain], the “endocytosis of Na/K-ATPase α1 (α1-positive vesicles)” value at Na/K-ATPase α1 [1] is “many al-positive vesicles were accumulated”. Further, the “levels of α1 mRNA” value with Na/K-ATPase α1 mRNA was “no effect on levels of α1 mRNA”. The “block of cell growth (cell counting)” value in the assay with DU145 cells [2] is “completely block the growth”. Moreover, the “effect on cell growth (MTT)” value in the assay on DU145 cells [3] (10-50 nM ouabain) was “significant inhibition of cell growth”. The “stimulatory effect on cell growth (MTT)” value in the assay with DU145 cells [3] (different concentrations of ouabain) was “failed to detect any stimulatory effect”. Moreover, the “cell number as a function of time” value with LLC-PK1 cells was “increased the number of LLC-PK1 cells in a time-dependent manner”. Besides, the “surface active Na/K-ATPase (3H-ouabain binding)” value in assay [4] and in assay [9] was “significant decrease in surface active Na/K-ATPase” in each case. Moreover, the “Akt stimulation (pAkt)” value with Akt [5] is reported as “failed to stimulate Akt”. The Akt phosphorylation entry in the assay with Akt [6] was “stimulated Akt phosphorylation”; with Akt [7] it was “failed to do so”. Also, in assay [8], the “number of 3H-ouabain binding sites (functional plasma membrane Na/K-ATPase)” value is listed as “barely changed the number of binding sites”. In addition, the “induction of α1 expression” value on Na/K-ATPase α1 [10] was “three-fold induction”. The “growth stimulation (MTT)” value in the assay on A4-11 cells is listed as “No growth stimulation was detected”. The “ouabain-induced α1 expression” value at Na/K-ATPase α1 [11] is reported as “completely blocked ouabain-induced α1 expression”.
